US20230117680A1, “CYCLOPHILIN D INHIBITORS AND USES THEREOF” (The Broad Institute, Inc., priority 2019, published 2023)
pIC50: −log10 of the molar value. “Also recorded” adds a separate entry of the source.

How the values were obtained:
[1] = system: 10 other cyclophilins with reported prolyl isomerase activity; assay: cyclophilin specificity screen: CypD against the other cyclophilins; assay type: biochemical; conditions: result in words
Source text: (§1) The selectivity of a compound described herein in inhibiting the activity of a first cyclophilin (e.g., CypD) over a second cyclophilin may be measured by the quotient of the IC50 value of the compound in inhibiting the activity of the second cyclophilin over the IC50 value of the compound in inhibiting the activity of the first cyclophilin. The selectivity of a compound described herein in modulating the activity of a first cyclophilin over a second cyclophilin may also be measured by the quotient of the Kd value of an adduct of the compound and the second cyclophilin over the Kd value of an adduct of the compound and the first cyclophilin (e.g., CypD). […] In certain embodiments, selectivity for inhibiting a first cyclophilin over other cyclophilins is measured by Surface Plasmon Resonance (SPR) assays as disclosed in the Examples.
(§2) Following the synthesis of the indicated library members, in vitro inhibition (IC50) assays of these hits were conducted to obtain IC50 inhibitory data. For the IC50 assays, a chymotrypsin coupled PPIase assay using Suc-AAPF-AMC as the peptide substrate was used, whereby isomerization of a peptide substrate Suc-AAPF-AMC from the cis to trans conformation allowed for proteolysis via excess a-chymotrypsin, releasing the C-terminal coumarin fluorophore.
Subsequently, to determine if the compounds could both access the S2 pocket and display CypD specificity, JOMBtrans and compound 49 were screened against the 10 other cyclophilins with reported prolyl isomerase activity. […] Co-crystal structures of JOMBtrans and 49 were solved with CypD.

mPTP = assay: inhibition of mPTP in in vitro cell culture; assay type: cell-based; conditions: result in words
Description: As disclosed herein, macrocycle inhibitors of cyclophilin D have been discovered and designed with previously unparalleled specificity. An active site binder displaying weak inhibition (IC50=15 uM) and no selectivity profile was initially optimized to 200 nM. CypD specificity was designed by building into S2 pocket residues. Bi-phenyl para-carboxylates provided the greatest level of potency (<2-30 nM) and selectivity for CypD. Co-crystal structures of these macrocycles bound to CypD were solved, and a dual binding mode was determined between active site and S2 pocket. MD simulations of co-crystal structures were conducted to observe dynamic interactions of carboxylate with S2 pocket. Initial proof of target engagement was determined via inhibition of the mPTP.

[2] = system: mPTP in isolated mice kidney mitochondria; assay: inhibition of mPTP in isolated mitochondria (tolerated Ca2+ pulses before full mPTP opening); conditions: result in words
Description: In isolated mice kidney mitochondria, the maximum number of Ca^2+ pulses that could be tolerated before full mPTP opening was measured (see FIG. 24).

CypD = CypD (Homo sapiens, UniProt P30405); assay: chymotrypsin coupled PPIase assay (Suc-AAPF-AMC substrate), CypD inhibition; assay type: biochemical
Source text: as §1, §2

CypD, sequence (P30405 30-207): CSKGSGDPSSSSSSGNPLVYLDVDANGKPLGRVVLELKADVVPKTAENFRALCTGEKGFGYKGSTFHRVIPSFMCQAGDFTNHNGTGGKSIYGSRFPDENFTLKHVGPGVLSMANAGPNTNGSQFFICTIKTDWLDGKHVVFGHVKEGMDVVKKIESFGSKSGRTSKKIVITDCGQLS

Row | pIC50 (CypD; read-out: potency for CypD) | potency for CypD (in words) (CypD; result in words) | Compound | specificity / selectivity profile for CypD (in words) [1] | rescue of mPTP in cell culture (mPTP) | number of tolerated Ca2+ pulses before full mPTP opening [2]
1 | 8.60 | high potency | NCCOCCNC(=O)[C@@H]1CCNC(=O)/C=C/C(=O)N2CCC[C@](Cc3ccccc3)(C2)C(=O)N[C@@H](Cc2ccc(-c3ccc(CCC(=O)O)cc3)cc2)C(=O)NCc2ccccc2CC(=O)N1 [A-81] | high specificity; also recorded: drastic preference for inhibition of CypD | appears to not rescue mPTP | extend Ca^2+ loading
2 |  |  | CC(=O)c1ccc(-c2ccc(C[C@@H]3NC(=O)[C@]4(Cc5ccccc5)CCCN(C4)C(=O)/C=C/C(=O)NCC[C@@H](C(=O)NCCOCCN)NC(=O)Cc4ccccc4CNC3=O)cc2)cc1 [A-22] |  | minimal rescue | extend Ca^2+ loading
